# Molecular target: T1, human M4 muscarinic acetylcholine receptor (Homo sapiens, UniProt P08173)
# T1 construct: expressed in transfected cells; host or cells: CHO-K1
# T1 sequence (P08173 1-479): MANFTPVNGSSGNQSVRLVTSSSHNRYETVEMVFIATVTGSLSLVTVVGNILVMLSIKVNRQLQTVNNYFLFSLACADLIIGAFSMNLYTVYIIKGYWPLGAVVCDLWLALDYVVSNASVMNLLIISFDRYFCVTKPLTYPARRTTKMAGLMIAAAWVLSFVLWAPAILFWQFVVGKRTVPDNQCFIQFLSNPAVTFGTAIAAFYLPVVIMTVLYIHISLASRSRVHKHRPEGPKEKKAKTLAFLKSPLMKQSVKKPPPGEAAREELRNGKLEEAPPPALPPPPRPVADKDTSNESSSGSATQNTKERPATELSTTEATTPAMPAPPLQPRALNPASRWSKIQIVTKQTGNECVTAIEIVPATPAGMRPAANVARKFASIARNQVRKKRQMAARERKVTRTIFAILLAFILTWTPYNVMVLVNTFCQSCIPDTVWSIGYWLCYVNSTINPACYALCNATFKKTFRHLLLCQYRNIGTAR
# Assay: human FLIPR-based M4 PAM assay, CHO-K1 cells stably transfected with human M4 receptor and chimeric G-protein Gαqi5
# Format: cell-based
# Conditions: inflection point (IP) of dose response curve; acetylcholine added at 20% of maximum response; CHO-K1 human M4/Gαqi5, FLIPR Tetra
# How it was run: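 CHO-K1 cells were loaded with calcium dye at 37 °C for ~1 h. Fluorescence (ex 470–495/em 515–575 nm) was read for 4 min after test compound at increasing concentrations, then 3.5 min after acetylcholine at an EC20; sometimes a third addition at EC70 followed. The value is the inflection point of a 4-parameter logistic fit.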
row,Structure (SMILES),EC50
1,"CCc1ncnc(N2CCC(Oc3cccc(C#N)c3)CC2)c1C [Example 261, 3-((1-(6-Ethyl-5-methylpyrimidin-4-yl)piperidin-4-yl)oxy)benzonitrile]",425 nM
2,"COc1ccc(OC2CCN(c3ncnc(N4CC(F)(F)C4)c3C)CC2)cn1 [Example 236, 4-(3,3-difluoroazetidin-1-yl)-6-(4-((6-methoxypyridin-3-yl)oxy)piperidin-1-yl)-5-methylpyrimidine]",228 nM
3,"CCOC(=O)c1cc(C)c(N2CCC(Oc3ccc(OC)nc3)CC2)nn1 [Example 105A, ethyl 6-(4-((6-methoxypridin-3-yl)oxy)piperidin-1-yl)-5-methylpyridazine-3-carboxylate]",170 nM
4,"COc1ncc(OC2CCN(c3nc(C)ncc3C)CC2)cc1F [Example 74, 4-(4-((5-fluoro-6-methoxypyridin-3-yl)oxy)piperidin-1-yl)-2,5-dimethylpyrimidine]",155 nM
5,"Cc1ncc(C)c(N2CCC(Oc3ccc4[nH]ncc4c3)CC2)n1 [Example 59, 5-((1-(2,5-dimethylpyrimidin-4-yl)piperidin-4-yl)oxy)-1H-indazole]",66 nM
6,"Cc1c(Cl)nc(CO)nc1N1CCC(Oc2ccc3c(c2)NCCC3)CC1 [Example 35, (4-chloro-5-methyl-6-(4-((1,2,3,4-tetrahydroquinolin-7-yl)oxy)piperidin-1-yl)pyrimidin-2-yl)methanol]",220 nM
7,"Cc1c(Cl)ncnc1N1CCC(Oc2ccc3c(cnn3C)c2)CC1 [Example 60, 5-((1-(6-chloro-5-methylpyrimidin-4-yl)piperidin-4-yl)oxy)-1-methyl-1H-indazole]",67 nM
8,"Cc1nc2ccc(OC3CCN(c4nnc(C(=O)NCc5ccncc5)cc4C)CC3)cc2o1 [Example 143, 5-methyl-6-{4-[(2-methyl-1,3-benzoxazol-6-yl)oxy]piperidin-1-yl}-N-(pyridin-4-ylmethyl)pyridazine-3-carboxamide]",193 nM
9,"COc1ccc(OC2CCN(c3nnc(C(=O)NCc4ccc(F)cc4Cl)cc3C)CC2)cn1 [Example 183, N-(2-chloro-4-fluorobenzyl)-6-{4-[(6-methoxypyridin-3-yl)oxy]piperidin-1-yl}-5-methylpyridazine-3-carboxamide]",915 nM
10,"COc1ccc(OC2CCN(c3nc(C(=O)NCc4ccncc4Cl)nc(Cl)c3C)CC2)cn1 [Example 211, 4-chloro-N-((3-chloropyridin-4-yl)methyl)-6-(4-((6-methoxypyridin-3-yl)oxy)piperidin-1-yl)-5-methylpyrimidine-2-carboxamide]",635 nM
11,"COCc1nc(Cl)c(C)c(N2CCC(Oc3ccc(OC)nc3)CC2)n1 [Example 78, 4-chloro-2-(methoxymethyl)-6-(4-((6-methoxypyridin-3-yl)oxy)piperidin-1-yl)-5-methylpyrimidine]",187 nM
12,"COc1ccc(OC2CCN(c3nnc(C(=O)N[C@@H]4CCc5cc(F)ccc5C4)cc3C)CC2)cn1 [Example 184B, (R)-N-(6-fluoro-1,2,3,4-tetrahydronaphthalen-2-yl)-6-{4-[(6-methoxypyridin-3-yl)oxy]piperidin-1-yl}-5-methylpyridazine-3-carboxamide]",1010 nM
13,"C=Cc1ncnc(N2CCC(Oc3cccc(C#N)c3)CC2)c1C [Example 245, 3-((1-(5-methyl-6-vinylpyrimidin-4-yl)piperidin-4-yl)oxy)benzonitrile]",484 nM
14,"COc1ccc(OC2CCN(c3nc(C(N)=O)nc(Br)c3C)CC2)cn1 [Example 225A, 4-bromo-6-(4-((6-methoxypyridin-3-yl)oxy)piperidin-1-yl)-5-methylpyrimidine-2-carboxamide]",62 nM
15,"COc1ccc([C@H](C)NC(=O)c2cc(C)c(N3CCC(Oc4ccc(OC)nc4)CC3)nn2)cc1 [Example 182, N-[(1S)-1-(4-methoxyphenyl)ethyl]-6-{4-[(6-methoxypyridin-3-yl)oxy]piperidin-1-yl}-5-methylpyridazine-3-carboxamide]",893 nM
16,"COc1ccc(OC2CCN(c3nnc(C(=O)NC4CCc5cccnc54)cc3C)CC2)cn1 (stereo not shown) [Example 170, N-(6,7-dihdyro-5H-cyclopenta[b]pyridin-7-yl)-6-{4-[(6-methoxypyridin-3-yl)oxy]piperidin-1-yl}-5-methylpyridazine-3-carboxamide]",465 nM
17,"COc1ccc(OC2CCN(c3nnc(C(=O)N[C@@H]4CCc5ncccc5C4)cc3C)CC2)cn1 [Example 141A, (R)-6-(4-((6-methoxypyridin-3-yl)oxy)piperidin-1-yl)-5-methyl-N-(5,6,7,8-tetrahydroquinolin-6-yl)pyridazine-3-carboxamide]",57 nM

row,Structure (SMILES),EC50
1,"Cc1ccc(OC2CCN(c3nnc(C(=O)NCc4ccncc4)cc3C)CC2)cc1Cl [Example 156, 6-[4-(3-chloro-4-methylphenoxy)piperidin-1-yl]-5-methyl-N-(pyridin-4-ylmethyl)pyridazine-3-carboxamide]",272 nM
2,"COc1ccc(OC2CCN(c3nc(C(N)=O)nc(Cl)c3C)CC2)cn1 [Example 206, 4-chloro-6-(4-((6-methoxypyridin-3-yl)oxy)piperidin-1-yl)-5-methylpyrimidine-2-carboxamide]",168 nM
3,"COc1ccc(OC2CCN(c3nnc(C(=O)NC4CNC(=O)C4)cc3C)CC2)cn1 (stereo not shown) [Example 145, 6-{4-[(6-methoxypyridin-3-yl)oxy]piperidin-1-yl}-5-methyl-N-(5-oxopyrrolidin-3-yl)pyridazine-3-carboxamide]",194 nM
4,"COc1ccc(OC2CCN(c3nnc(C(=O)NCc4ccc5c(c4)CNC5=O)cc3C)CC2)cn1 [Example 175, 6-{4-[(6-methoxypyridin-3-yl)oxy]piperidin-1-yl}-5-methyl-N-[(1-oxo-2,3-dihydro-1H-isoindol-5-yl)methyl]pyridazine-3-carboxamide]",573 nM
5,"COc1ccc(OC2CCN(c3nc(CO)nc(Cl)c3C)CC2)cc1 [Example 47, (4-chloro-6-(4-(4-methoxyphenoxy)piperidin-1-yl)-5-methypyrimidin-2-yl)methanol]",25 nM
6,"COc1ccc(OC2CCN(c3nnc(C(=O)NCCc4ccccc4)cc3C)CC2)cn1 [Example 196, 6-{4-[(6-methoxypyridin-3-yl)oxy]piperidin-1-yl}-5-methyl-N-(2-phenylethyl)pyridazine-3-carboxamide]",74 nM
7,"COc1ccc(OC2CCN(c3ncnc(N4CCCC4)c3C)CC2)cn1 [Example 237, 4-(4-((6-methoxypyridin-3-yl)oxy)piperidin-1-yl)-5-methyl-6-(pyrrolidin-1-yl)pyrimidine]",1820 nM
8,"Cc1c(-c2ccoc2)ncnc1N1CCC(Oc2cccc(C#N)c2)CC1 [Example 249, 3-((1-(6-(furan-3-yl)-5-methylpyrimidin-4-yl)piperidin-4-yl)oxy)benzonitrile]",925 nM
9,"COc1ccc(OC2CCN(c3nnc(C(=O)N[C@@H]4CCc5cccnc5C4)cc3C)CC2)cn1 [Example 126A, (R)-6-{4-[(6-methoxypyridin-3-yl)oxy]piperidin-1-yl}-5-methyl-N-(5,6,7,8-tetrahydroquinolin-7-yl)pyridazine-3-carboxamide]",110 nM
10,"Cc1c(-c2cccnc2)ncnc1N1CCC(Oc2cccc(C#N)c2)CC1 [Example 244, 3-((1-(5-methyl-6-(pyridin-3-yl)pyrimidin-4-yl)piperidin-4-yl)oxy)benzonitrile]",461 nM
11,"Cc1c(Cl)nc(C2CC2)nc1N1CCC(Oc2cccnc2)CC1 [Example 95B, 4-chloro-2-cyclopropyl-5-methyl-6-(4-(pyridin-3-yloxy)piperidin-1-yl)pyrimidine]",435 nM
12,"COc1ccc(OC2CCN(c3nnc(C(=O)NC4CCc5cccnc5C4)cc3C)CC2)cn1 (stereo not shown) [Example 136, 6-{4-[(6-methoxypyridin-3-yl)oxy]piperidin-1-yl}-5-methyl-N-(5,6,7,8-tetrahydroquinolin-7-yl)pyridazine-3-carboxamide]",173 nM
13,"COc1ccc(OC2CCN(c3nnc(C(=O)NCc4ccncc4C)cc3C)CC2)cn1 [Example 121, 6-{4-[(6-methoxypyridin-3-yl)oxy]piperidin-1-yl}-5-methyl-N-[(3-methylpyridin-4-yl)methyl]pyridazine-3-carboxamide]",99 nM
14,"COc1ncc(OC2CCN(c3nnc(C(=O)NCc4ccncc4)cc3C)CC2)cc1F [Example 140, 6-{4-[(5-fluoro-6-methoxypyridin-3-yl)oxy]piperidin-1-yl}-5-methyl-N-(pyridin-4-ylmethyl)pyridazine-3-carboxamide]",179 nM
15,"CSc1ncc(C#N)c(N2CCC(Oc3cccnc3)CC2)n1 [Example 95A, 2-(methylthio)-4-(4-(pyridin-3-yloxy)piperidin-1-yl)pyrimidine-5-carbonitrile]",4940 nM
16,"COc1ccc(OC2CCN(c3nnc(C(=O)N[C@@H]4CCc5ccccc54)cc3C)CC2)cn1 [Example 179, N-[(1R)-2,3-dihydro-1H-inden-1-yl]-6-{4-[(6-methoxypyridin-3-yl)oxy]piperidin-1-yl}-5-methylpyridazine-3-carboxamide]",793 nM
17,"COc1ccc(OC2CCN(c3nc(SC)nc(Cl)c3C)CC2)cc1 [Example 16, 4-chloro-6-(4-(4-methoxyphenoxy)piperidin-1-yl)-5-methyl-2-(methylthio)pyrimidine]",1830 nM

# — patent publication US11319298B2 (Merck Sharp & Dohme Corp., priority 2016, dated 2022)
